Activity calls are given as the source filed them.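 How the source made its calls: active means activity score of at least 10, based on curve potency, or else summed standardized inhibition across doses; inactive means the rest.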
Test system: HUVEC TNFa-induced p65 nuclear translocation, imaging
Experiment: blockers of TNFa-triggered NFkappaB nuclear entry – imaging, HUVEC, TNFalpha stimulation, p65 immunofluorescence, confirmation (AID 462)
Conditions: not given

Question: Which IC50 does the source give for `O=S1(=O)Nc2c(ccc3cccnc23)-c2ccccc21` here?
Answer: Its IC50 is 2070 nM.

Question: Which IC50 does the source give for `C[C@H]1CCC/C=C/C2C[C@H](O)CC2[C@H](O)/C=C/C(=O)O1` (some centres not stated) here?
Answer: The IC50 was 40 nM.

Question: For `C=CS(=O)(=O)c1ccc(Oc2ccc(S(=O)(=O)C=C)cc2)cc1`, which IC50 is on record?
Answer: Its IC50 is 1460 nM.

Test system: not listed separately
Experiment: as above
Conditions: HUVEC TNFa-induced p65 nuclear translocation, imaging; at 8 µM (top of the series)

Question: For `CN1CCN(c2oc(COc3ccc(-c4ccccc4)cc3)nc2C#N)CC1`, which inhibition is on record?
Answer: Its inhibition is 2.4% (inactive).

Question: For `Cc1nc(NC2=NCN(CCc3ccccc3)CN2)nc2c(C)cccc12`, which inhibition is on record?
Answer: Its inhibition is 1% (inactive).

Question: Which inhibition does the source give for `CCOc1cc(C2C(C#N)=C(N)Oc3n[nH]c(CC)c32)ccc1OCCN1CCOCC1` (configuration not stated) here?
Answer: The inhibition was -2.3% (inactive).

Question: For `O=C(COC(=O)c1ccccc1Oc1ccccc1)NC1CCS(=O)(=O)C1` (configuration not stated), which inhibition is on record?
Answer: Its inhibition is -1.2% (inactive).

Question: With `CC1CCCCN1CCNC(=O)c1ccc2c(=O)n(CCc3ccccc3)c(=O)[nH]c2c1` (configuration not stated) as the compound, how does the inhibition read?
Answer: The inhibition was 4.4% (inactive).

Question: Which inhibition does the source give for `COc1ccc(/C(O)=C2/C(=O)C(=O)N(Cc3ccco3)C2c2cccs2)cc1` (configuration not stated) here?
Answer: Its inhibition is 4.7% (inactive).

Question: For `COc1ccccc1CNC(=O)C1CCCN(S(=O)(=O)c2cnc[nH]2)C1` (configuration not stated), which inhibition is on record?
Answer: The inhibition was -1.1% (inactive).

Question: For `Cc1cccc(N2CN=c3s/c(=C\c4ccncc4)c(=O)n3C2)c1`, which inhibition is on record?
Answer: The inhibition was -7.5% (inactive).

Question: Which inhibition does the source give for `CCn1c(C(=O)N2CCCC(C(=O)O)C2)cc2sccc21` (configuration not stated) here?
Answer: Its inhibition is 1.8% (inactive).

Question: For `O=C(COc1ccc2ccccc2c1)N1CCN(C2CCN(Cc3ccccc3)CC2)CC1`, which inhibition is on record?
Answer: Its inhibition is 3.5% (inactive).

Question: With `Cc1cc(C(C)(C)C)c(O)c(C)c1CC1=NCCN1` as the compound, how does the inhibition read?
Answer: The inhibition was 7.9% (inactive).

Question: For `COc1ccc(C(NC(=O)c2ccco2)c2ccc(OC)c(OC)c2)cc1` (configuration not stated), which inhibition is on record?
Answer: The inhibition was -3.1% (inactive).

Question: Which inhibition does the source give for `COC(=O)c1ccc(N2C(=O)CC(N3CCN(C(=O)c4ccco4)CC3)C2=O)cc1` (configuration not stated) here?
Answer: The inhibition was 11.1% (inactive).

Question: For `O=C(O)c1ccc(COCC(F)(F)C(F)F)o1`, which inhibition is on record?
Answer: Its inhibition is 7.3% (inactive).

Question: With `Cn1c(=O)c2c(nc(CN3CCOCC3)n2CC(O)CO)n(C)c1=O` (configuration not stated) as the compound, how does the inhibition read?
Answer: Its inhibition is 3.2% (inactive).

Question: For `COc1ccc(OC)c(C2C(C#N)=C(N)Oc3cc(C)n(Cc4ccccn4)c(=O)c32)c1` (configuration not stated), which inhibition is on record?
Answer: Its inhibition is 4.2% (inactive).

Question: For `CCCCOc1ccc(-c2nnn(CC(=O)Nc3ncc(CC(=O)OCC)s3)n2)cc1`, which inhibition is on record?
Answer: The inhibition was -1.5% (inactive).

Question: With `Cc1nn(Cc2ccccc2)c(C)c1NC(=O)CCC(=O)O` as the compound, how does the inhibition read?
Answer: The inhibition was -7.5% (inactive).

Question: With `CCC1Oc2ccccc2N(CC(=O)Nc2ccc(OC)cc2OC)C1=O` (configuration not stated) as the compound, how does the inhibition read?
Answer: The inhibition was -5% (inactive).

Question: With `CC1=CC2=C(OC1N(C)C)c1cccc3cccc(c13)C2=O` (configuration not stated) as the compound, how does the inhibition read?
Answer: The inhibition was 5.4% (inactive).

Question: For `COc1cc(C)nc(OCCNC(=O)COc2ccc(Cl)cc2C)n1`, which inhibition is on record?
Answer: Its inhibition is 0.4% (inactive).

Question: For `COc1ccc2c(c1)[nH]c1c(=O)n(CC3CCCO3)cnc12` (configuration not stated), which inhibition is on record?
Answer: The inhibition was -2.7% (inactive).

Question: With `COc1cc(C(O)c2nc3ccccc3n2C)cc(OC)c1OC` (configuration not stated) as the compound, how does the inhibition read?
Answer: The inhibition was -5.7% (inactive).

Question: With `COc1ccc(-c2nc3c(c(SCC(=O)N4CCOCC4)n2)COC(C)(C)C3)cc1` as the compound, how does the inhibition read?
Answer: Its inhibition is 1.1% (inactive).

Question: For `Cc1ccc(Cn2ncc3c(N4CCN(Cc5ccc(Cl)cc5)CC4)ncnc32)cc1`, which inhibition is on record?
Answer: Its inhibition is -0.2% (inactive).

Question: With `COc1ccc(N2CCN(CCCNC(=O)C3CCCN(S(=O)(=O)c4cnc[nH]4)C3)CC2)cc1` (configuration not stated) as the compound, how does the inhibition read?
Answer: The inhibition was 3.2% (inactive).

Question: With `CC(C)CNS(=O)(=O)c1ccc(CCC(=O)NCc2ccco2)cc1` as the compound, how does the inhibition read?
Answer: The inhibition was -5.6% (inactive).

Question: For `COc1cccc(N2CCN(c3ncnc4c3[nH]c3ccccc34)CC2C)c1` (configuration not stated), which inhibition is on record?
Answer: Its inhibition is 66.1%.

Question: Which inhibition does the source give for `O=C(CN(Cc1ccco1)C(=O)CNS(=O)(=O)c1ccc(Cl)cc1)NCc1ccc(F)cc1` here?
Answer: Its inhibition is -0.8% (inactive).

Question: Which inhibition does the source give for `Clc1ccc(-c2nnc3sc(-c4ccc(Br)o4)nn23)cc1` here?
Answer: Its inhibition is 3.4% (inactive).

Question: Which inhibition does the source give for `Cc1ccccc1CN1CCNC1=O` here?
Answer: Its inhibition is -8% (inactive).

Question: With `CCOc1ccc(C2=Nn3c(nnc3-c3ccccc3OC)SC2)cc1` as the compound, how does the inhibition read?
Answer: Its inhibition is 19.7%.

Question: With `Cc1cc(C)n(CC2CC(=O)N(c3cc(Cl)cc(Cl)c3)C2=O)n1` (configuration not stated) as the compound, how does the inhibition read?
Answer: Its inhibition is 6.8% (inactive).

Question: Which inhibition does the source give for `Cn1c(C(=O)NCCC2=CCCCC2)cc2c(=O)n3ccccc3nc21` here?
Answer: Its inhibition is -8% (inactive).

Question: With `O=C1[C@@H]2C(c3ccccc3Cl)=NO[C@@H]2C(=O)N1Cc1ccccc1` as the compound, how does the inhibition read?
Answer: The inhibition was 0% (inactive).

Question: For `O=C(CSc1nnc(SCc2ccc(Cl)cc2)s1)N1CCN(C(=O)c2ccco2)CC1`, which inhibition is on record?
Answer: The inhibition was 5.9% (inactive).

Question: Which inhibition does the source give for `CCn1c(CSc2ncccn2)nnc1SCC(=O)N1c2ccccc2CC1C` (configuration not stated) here?
Answer: The inhibition was -6.1% (inactive).

Question: With `c1cncc(C2Nc3ccccc3-c3nc4ccccc4n32)c1` (configuration not stated) as the compound, how does the inhibition read?
Answer: Its inhibition is -5% (inactive).

Question: For `Cc1c(C2Nc3ccccc3NC3=C2C(=O)CC(C)(C)C3)cnn1C` (configuration not stated), which inhibition is on record?
Answer: The inhibition was 4.8% (inactive).

Question: For `O=C(NCCCN1CCCC1=O)C1CCN(S(=O)(=O)N2CCOCC2)CC1`, which inhibition is on record?
Answer: Its inhibition is -10% (inactive).

Question: Which inhibition does the source give for `N#Cc1c(N)n(CCOC(=O)c2ccc(Cl)cc2)c2nc3ccccc3nc12` here?
Answer: The inhibition was 6.7% (inactive).

Question: Which inhibition does the source give for `CCOc1ccc(S(=O)(=O)N(C)C)cc1-c1nc2c(C(C)(C)C)nn(C)c2c(=O)[nH]1` here?
Answer: Its inhibition is -7.2% (inactive).

Question: With `CC[C@]1(O)CC2CN(CCc3c([nH]c4ccccc34)[C@@](C(=O)OC)(c3cc4c(cc3OC)N(C=O)[C@H]3[C@@](O)(C(=O)OC)[C@H](OC(C)=O)[C@]5(CC)C=CCN6CC[C@]43[C@@H]65)C2)C1` (some centres not stated) as the compound, how does the inhibition read?
Answer: Its inhibition is 17.2%.

Question: With `COc1ccc(S(=O)(=O)N2CCCC2C(=O)Nc2ccc(C)cc2)cc1` (configuration not stated) as the compound, how does the inhibition read?
Answer: The inhibition was -0.4% (inactive).

Question: Which inhibition does the source give for `COc1ccc(OC)c(NS(=O)(=O)c2ccc(N3CCCC3=O)cc2)c1` here?
Answer: Its inhibition is 15.5% (inactive).

Question: With `COc1cc(C2C(C#N)=C(N)Oc3cc(N)ccc32)cc(OC)c1OC` (configuration not stated) as the compound, how does the inhibition read?
Answer: Its inhibition is 23.6% (inactive).

Question: For `O=C(Nc1ccc2oc(-c3ccncc3)nc2c1)c1cccs1`, which inhibition is on record?
Answer: The inhibition was 0.6% (inactive).

Question: Which inhibition does the source give for `CC12C(=O)N(CCC(=O)O)C(=O)C1C1C=CC2C1` (configuration not stated) here?
Answer: The inhibition was -5.1% (inactive).

Question: Which inhibition does the source give for `COc1ccc(CNC(=O)COC(=O)c2n[nH]c3ccccc23)cc1OC` here?
Answer: The inhibition was -3.8% (inactive).

Question: For `COc1cc([C@@H]2c3cc4c(cc3[C@H](O)[C@H]3COC(=O)[C@H]23)OCO4)cc(OC)c1OC`, which inhibition is on record?
Answer: The inhibition was 26.3%.

Question: With `CN(C(=O)COc1cc(=O)n(C)c2ccccc12)c1ccc(Br)cc1` as the compound, how does the inhibition read?
Answer: The inhibition was 2.8% (inactive).

Question: Which inhibition does the source give for `Nc1nc(C(=O)N2CCOCC2)nn1S(=O)(=O)c1ccc(Cl)cc1` here?
Answer: The inhibition was -1.1% (inactive).

Question: Which inhibition does the source give for `COC(=O)CCC(=O)Nc1cccc(Cl)c1` here?
Answer: The inhibition was -0.6% (inactive).

Question: With `CCOC(=O)CCNc1n[nH]c(=O)[nH]c1=O` as the compound, how does the inhibition read?
Answer: The inhibition was 14.4% (inactive).

Question: Which inhibition does the source give for `Cc1ccc(-n2c(=O)[nH]c3c(C(N)=O)nc(CC(C)C)nc32)cc1` here?
Answer: Its inhibition is -5.2% (inactive).

Question: Which inhibition does the source give for `CCOc1ccccc1C(=O)N1CCN(c2cccc(Cl)c2)CC1` here?
Answer: Its inhibition is 18.5% (inactive).

Question: For `COc1ccc(-n2c(Cc3cccn3C)nnc2SCC(=O)Nc2cccc(Cl)c2)cc1`, which inhibition is on record?
Answer: The inhibition was 3.9% (inactive).

Question: For `CC(C)OC(=O)CSc1nnc(Cc2ccccc2)n1Cc1ccco1`, which inhibition is on record?
Answer: Its inhibition is -1.5% (inactive).

Question: For `CCn1c(C(C#N)/C(=N\S(=O)(=O)c2cccs2)c2ccccc2)nc2ccccc21` (configuration not stated), which inhibition is on record?
Answer: The inhibition was -1.6% (inactive).

Question: For `Cc1csc(SCCn2c(N3CCCC3)nc3c2c(=O)[nH]c(=O)n3C)n1`, which inhibition is on record?
Answer: The inhibition was -7.5% (inactive).

Question: With `O=C(CSc1nnc2ncccn12)N1CCCCCC1` as the compound, how does the inhibition read?
Answer: The inhibition was -3.2% (inactive).

Question: For `COC(=O)CCC(NC(=O)c1cc(-c2ccc3c(c2)OCCO3)oc1C)C(=O)OC` (configuration not stated), which inhibition is on record?
Answer: The inhibition was -1.9% (inactive).

Question: With `COc1ccc(OCC(=O)OCCN(C)C)cc1` as the compound, how does the inhibition read?
Answer: Its inhibition is 6.8% (inactive).

Question: With `Nn1c(SCC(=O)Nc2ccc(F)cc2)nnc1-c1cccnc1` as the compound, how does the inhibition read?
Answer: The inhibition was -0.4% (inactive).

Question: With `CCOC(=O)c1cc2c(=O)n3cccc(C)c3nc2n(CCc2ccccc2)c1=N` as the compound, how does the inhibition read?
Answer: Its inhibition is 17.3% (inactive).

Question: For `Cc1nc(N)[nH]c(=O)c1CCC(=O)OCC(C)C`, which inhibition is on record?
Answer: The inhibition was 0% (inactive).

Question: With `COc1ccc(CC(=O)Nc2ccc(OC)c(NC(=O)c3ccco3)c2)cc1` as the compound, how does the inhibition read?
Answer: The inhibition was -6.4% (inactive).

Question: For `COc1ccc(N(C)C(=O)CCS(=O)(=O)c2cccc3nonc23)cc1`, which inhibition is on record?
Answer: Its inhibition is -0.8% (inactive).

Question: Which inhibition does the source give for `COc1ccccc1CN1CC(C(=O)N2CCN(c3ccc(F)cc3)CC2)CC1=O` (configuration not stated) here?
Answer: The inhibition was 1.4% (inactive).

Question: Which inhibition does the source give for `O=C(C1CCC(N2C(=O)C3CC=CCC3C2=O)CC1)N1CCCCC1` (configuration not stated) here?
Answer: Its inhibition is -2.3% (inactive).

Question: Which inhibition does the source give for `CCC(NC(=O)Nc1nnc(C(F)(F)F)s1)(C(F)(F)F)C(F)(F)F` here?
Answer: Its inhibition is -22.3% (inactive).

Question: With `COc1ccccc1-c1nnc2n1N=C(c1ccc(O)c(O)c1)CS2` as the compound, how does the inhibition read?
Answer: The inhibition was 23% (inactive).

Question: Which inhibition does the source give for `CCN1C(=C2C(=O)c3ccccc3C2=O)C=Cc2ccccc21` here?
Answer: The inhibition was -5% (inactive).

Question: Which inhibition does the source give for `CC(C)CCNC(=O)NC(=O)CSc1nnc(COc2ccccc2Cl)o1` here?
Answer: Its inhibition is -7.1% (inactive).

Reference: PubChem BioAssay AID462 (Columbia University Molecular Screening Center, 2006)
